Assay results taken from patent US4588525A, “Prodrug compounds for dermal application” (Molecular Biosystems, Inc., priority 1984, dated 1986).

How the values were obtained:
human lung fibroblasts = test: Inhibition of growth of human lung fibroblasts in culture; type: cell-based; conditions: for IC50: Homo sapiens, Fibroblast, growth inhibition 50%, usually 3-4 days, 10^4 cells/35 mm dish, Coulter counter, read-out: ID50 (the source's name)
Description: Drugs were evaluated by their ability to inhibit the growth of human lung fibroblasts in culture. Human lung fibroblasts were grown in Eagle's Minimal Essential Media (EMEM) which contained 10% fetal calf serum, 1X non-essential amino acids, and 250 units penicillin and 250 μg streptomycin/ml. Stock cultures of the cells were grown on 100 mm culture plates. For testing purposes, cells were removed from the stock plates with 3 mls trypsin/versene and after appropriate dilution in the culture medium were plated onto 35 mm dishes. Typically, cells were subcultured at 10^4 cells/35 mm dish in 1.5 mls of medium and allowed to attach for 24 hours before the addition of drugs. Triplicate plates were treated with drugs over a wide concentration range. In some cases, it was necessary to dissolve stock solutions of the drugs with 50% ethanol. In such cases, appropriate controls were included to assure that the ethanol had no adverse effects. In all cases, untreated triplicate control plates were employed in order to determine the cell population at the time of drug addition and at the time of experiment ccmpletion (usual 3-4 days). The number of cells on the test and control plates was determined by first removing the medium by aspiration followed by gentle washing with 1 ml phosphate buffered saline. Trypsin/versene (0.5 ml) was then added and the plates incubated at 37° C. for up to 15 minutes or until the cells became detached. One milliliter of EMEM which contained 1X non-essential amino acids was then added in order to neutralize the action of trypsin. The cells were then diluted into ISOTON II (Curtin Matheson Scientific, Houston, Tex.) and counted on a Coulter counter (Coulter Electronics, Hialeah, Fla.) according to the Coulter counter owner's manual.

cellular enzymes = test: Conversion by cellular enzymes to active 6-aminonicotinamide (interpretation of Table A); type: cell-based, human
Source text: Such cleavages might be exploited to retain local activity but to eliminate systemic toxicity.

cancer = conditions: use questionable due to the CNS side effects; cited from earlier work
[1] = in vivo; cited from earlier work
[2] = topical, unless accompanied by oral nicotinamide; cited from earlier work

| SMILES | IC50 (human lung fibroblasts) [µM] | further results |
| --- | --- | --- |
| NC(=O)c1ccc(NC(=O)CCC(=O)O)nc1 [6-Aminonicotinamide-N^6 --succinic acid, 6-aminonicotinamide-N^6-succinic acid] | 2000 | activity (inhibition of cell growth), in words (human lung fibroblasts; interpretation of Table A): essentially inactive |
| NC(=O)c1ccc(NC(=O)CCC(=O)N2CCCCC2)nc1 [6-Aminonicotinamide-N^6-succinyl piperidate] |  | conversion by cellular enzymes to active 6-aminonicotinamide (cellular enzymes): readily converted; efficiency of conversion compared with the other alkyl or ester analogues (cellular enzymes): more efficient |
| CCOC(=O)CCC(=O)Nc1ccc(C(N)=O)cn1 [6-Aminonicotinamide-N^6 --succinate ethyl ester] | 5 |  |
| NC(=O)c1ccc(NC(=O)CCC(=O)N2CCOCC2)nc1 [6-Aminonicotinamide-N^6-succinylmorpholidate] |  | conversion by cellular enzymes to active 6-aminonicotinamide (cellular enzymes): readily converted; efficiency of conversion compared with the other alkyl or ester analogues (cellular enzymes): more efficient |
| CCCCCCOC(=O)CCC(=O)Nc1ccc(C(N)=O)cn1 [6-Aminonicotinamide-N^6 --succinate hexyl ester] | 20 |  |
| CCCCCCC(=O)Nc1ccc(C(N)=O)cn1 [N^6 --heptanoyl-6-aminonicotinamide] | 20 |  |
| COC(=O)CCC(=O)Nc1ccc(C(N)=O)cn1 [6-Aminonicotinamide-N^6 --succinate methyl ester] | 20 |  |
| CCCCOC(=O)CCC(=O)Nc1ccc(C(N)=O)cn1 [6-Aminonicotinamide-N^6 --succinate butyl ester] | 20 |  |
| CCOC(=O)CCCCC(=O)Nc1ccc(C(N)=O)cn1 [6-Aminonicotinamide-N^6 --apidic acid ethyl ester] | 30 |  |
| NC(=O)c1ccc(N)nc1 [6-Aminonicotinamide, 6-aminonicotinamide] | 2 | anti-cancer activity (cancer): anti-cancer activity; effectiveness against psoriasis compared with methotrexate [1]: more effective against psoriasis than methotrexate; central nervous system toxicity (CNS) [2]: a central nervous system toxicity (CNS) may result |
